# Source: PubChem BioAssay (NCI)
#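 Protocol summary: plate cells (96-well), add compound at 5 concentrations, incubate 48 h, interpolate endpoints linearly. TGI: concentration producing complete growth inhibition.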
# Experiments:
# Assay in all cases: DTP human tumour cell line panel, 48 h
# 786-0 renal = test system: 786-0 renal
# A498 renal = test system: A498 renal
# A549 NSCLC = test system: A549 NSCLC
# ACHN renal = test system: ACHN renal
# CAKI-1 renal = test system: CAKI-1 renal
# CCRF-CEM leukemia = test system: CCRF-CEM leukemia
# COLO 205 colon = test system: COLO 205 colon
# DLD-1 colon = test system: DLD-1 colon
# DMS 114 small cell lung = test system: DMS 114 small cell lung
# DU-145 prostate = test system: DU-145 prostate
# EKVX NSCLC = test system: EKVX NSCLC
# HCC-2998 colon = test system: HCC-2998 colon
# HCT-116 colon = test system: HCT-116 colon
# HCT-15 colon = test system: HCT-15 colon
# HL-60(TB) leukemia = test system: HL-60(TB) leukemia
# HOP-62 NSCLC = test system: HOP-62 NSCLC
# HOP-92 NSCLC = test system: HOP-92 NSCLC
# HS 578T breast = test system: HS 578T breast
# HT29 colon = test system: HT29 colon
# IGROV1 ovarian = test system: IGROV1 ovarian
# KM12 colon = test system: KM12 colon
# KM20L2 colon = test system: KM20L2 colon
# LOX IMVI melanoma = test system: LOX IMVI melanoma
# LXFL 529 NSCLC = test system: LXFL 529 NSCLC
# M14 melanoma = test system: M14 melanoma
# M19-MEL melanoma = test system: M19-MEL melanoma
# MALME-3M melanoma = test system: MALME-3M melanoma
# MDA-MB-231 breast = test system: MDA-MB-231 breast
# MDA-MB-435 = test system: MDA-MB-435
# MDA-N = test system: MDA-N
# MOLT-4 leukemia = test system: MOLT-4 leukemia
# NCI-H226 lung = test system: NCI-H226 lung
# NCI-H23 lung = test system: NCI-H23 lung
# NCI-H460 lung = test system: NCI-H460 lung
# NCI-H522 lung = test system: NCI-H522 lung
# NCI/ADR-RES ovarian = test system: NCI/ADR-RES ovarian
# OVCAR-3 ovarian = test system: OVCAR-3 ovarian
# OVCAR-5 ovarian = test system: OVCAR-5 ovarian
# OVCAR-8 ovarian = test system: OVCAR-8 ovarian
# PC-3 prostate = test system: PC-3 prostate
# RPMI-8226 leukemia = test system: RPMI-8226 leukemia
# RXF 393 renal = test system: RXF 393 renal
# SF-268 CNS = test system: SF-268 CNS
# SF-295 CNS = test system: SF-295 CNS
# SF-539 CNS = test system: SF-539 CNS
# SK-MEL-2 melanoma = test system: SK-MEL-2 melanoma
# SK-MEL-28 melanoma = test system: SK-MEL-28 melanoma
# SK-MEL-5 melanoma = test system: SK-MEL-5 melanoma
# SK-OV-3 ovarian = test system: SK-OV-3 ovarian
# SN12C renal = test system: SN12C renal
# SNB-19 CNS = test system: SNB-19 CNS
# SNB-75 CNS = test system: SNB-75 CNS
# SNB-78 CNS = test system: SNB-78 CNS
# SR leukemia = test system: SR leukemia
# SW-620 colon = test system: SW-620 colon
# T-47D breast = test system: T-47D breast
# TK-10 renal = test system: TK-10 renal
# U251 CNS = test system: U251 CNS
# UACC-257 melanoma = test system: UACC-257 melanoma
# UACC-62 melanoma = test system: UACC-62 melanoma
# UO-31 renal = test system: UO-31 renal
# XF 498 CNS = test system: XF 498 CNS
# DMS 273 small cell lung = test system: DMS 273 small cell lung
# HOP-18 NSCLC = test system: HOP-18 NSCLC
# K-562 leukemia = test system: K-562 leukemia
# OVCAR-4 ovarian = test system: OVCAR-4 ovarian
smiles,measurement,setting,value
CCN(CC)CC(C)(C)C(=O)/C=C/c1ccc(/C=C/C(=O)C(C)(C)CN(CC)CC)cc1,TGI,786-0 renal,0.411 µM
same,TGI,A498 renal,3.49 µM
same,TGI,A549 NSCLC,5.76 µM
same,TGI,ACHN renal,3.09 µM
same,TGI,CAKI-1 renal,1.99 µM
same,TGI,CCRF-CEM leukemia,0.31 µM
same,TGI,COLO 205 colon,1.29 µM
same,TGI,DLD-1 colon,1.26 µM
same,TGI,DMS 114 small cell lung,0.876 µM
same,TGI,DU-145 prostate,5.29 µM
same,TGI,EKVX NSCLC,3.67 µM
same,TGI,HCC-2998 colon,1.56 µM
same,TGI,HCT-116 colon,0.74 µM
same,TGI,HCT-15 colon,0.901 µM
same,TGI,HL-60(TB) leukemia,0.22 µM
same,TGI,HOP-62 NSCLC,5.01 µM
same,TGI,HOP-92 NSCLC,1.46 µM
same,TGI,HS 578T breast,4.45 µM
same,TGI,HT29 colon,0.534 µM
same,TGI,IGROV1 ovarian,7.04 µM
same,TGI,KM12 colon,2.16 µM
same,TGI,KM20L2 colon,2.51 µM
same,TGI,LOX IMVI melanoma,1.04 µM
same,TGI,LXFL 529 NSCLC,0.417 µM
same,TGI,M14 melanoma,2.46 µM
same,TGI,M19-MEL melanoma,4.23 µM
same,TGI,MALME-3M melanoma,2.79 µM
same,TGI,MDA-MB-231 breast,0.756 µM
same,TGI,MDA-MB-435,2.16 µM
same,TGI,MDA-N,1.66 µM
same,TGI,MOLT-4 leukemia,0.546 µM
same,TGI,NCI-H226 lung,6.97 µM
same,TGI,NCI-H23 lung,4.73 µM
same,TGI,NCI-H460 lung,0.755 µM
same,TGI,NCI-H522 lung,0.194 µM
same,TGI,NCI/ADR-RES ovarian,6.59 µM
same,TGI,OVCAR-3 ovarian,1.76 µM
same,TGI,OVCAR-5 ovarian,2.93 µM
same,TGI,OVCAR-8 ovarian,0.774 µM
same,TGI,PC-3 prostate,1.51 µM
same,TGI,RPMI-8226 leukemia,0.46 µM
same,TGI,RXF 393 renal,0.928 µM
same,TGI,SF-268 CNS,2.11 µM
same,TGI,SF-295 CNS,2.54 µM
same,TGI,SF-539 CNS,2.54 µM
same,TGI,SK-MEL-2 melanoma,3.32 µM
same,TGI,SK-MEL-28 melanoma,2.28 µM
same,TGI,SK-MEL-5 melanoma,3.7 µM
same,TGI,SK-OV-3 ovarian,4.08 µM
same,TGI,SN12C renal,1.06 µM
same,TGI,SNB-19 CNS,4.21 µM
same,TGI,SNB-75 CNS,3.44 µM
same,TGI,SNB-78 CNS,4.64 µM
same,TGI,SR leukemia,0.758 µM
same,TGI,SW-620 colon,0.523 µM
same,TGI,T-47D breast,3.21 µM
same,TGI,TK-10 renal,2.49 µM
same,TGI,U251 CNS,1.57 µM
same,TGI,UACC-257 melanoma,4.26 µM
same,TGI,UACC-62 melanoma,4.89 µM
same,TGI,UO-31 renal,4.96 µM
same,TGI,XF 498 CNS,1.03 µM
CC(=O)ON(C(C)=O)C1C(COC(c2ccccc2)(c2ccccc2)c2ccccc2)OC2OC3(CCCC3)OC21 (stereo not drawn),TGI,786-0 renal,> 75.2 µM
same,TGI,A498 renal,> 100 µM
same,TGI,A549 NSCLC,> 100 µM
same,TGI,ACHN renal,> 100 µM
same,TGI,CAKI-1 renal,> 100 µM
same,TGI,CCRF-CEM leukemia,> 100 µM
same,TGI,COLO 205 colon,> 100 µM
same,TGI,DLD-1 colon,> 100 µM
same,TGI,DMS 114 small cell lung,> 100 µM
same,TGI,DMS 273 small cell lung,> 100 µM
same,TGI,EKVX NSCLC,> 100 µM
same,TGI,HCC-2998 colon,> 100 µM
same,TGI,HCT-116 colon,> 100 µM
same,TGI,HCT-15 colon,> 100 µM
same,TGI,HL-60(TB) leukemia,> 100 µM
same,TGI,HOP-18 NSCLC,> 100 µM
same,TGI,HOP-62 NSCLC,> 100 µM
same,TGI,HOP-92 NSCLC,8.27 µM
same,TGI,HT29 colon,> 100 µM
same,TGI,IGROV1 ovarian,> 100 µM
same,TGI,K-562 leukemia,> 100 µM
same,TGI,KM12 colon,> 100 µM
same,TGI,KM20L2 colon,> 100 µM
same,TGI,LOX IMVI melanoma,21.3 µM
same,TGI,M14 melanoma,> 100 µM
same,TGI,M19-MEL melanoma,> 100 µM
same,TGI,MALME-3M melanoma,> 100 µM
same,TGI,MOLT-4 leukemia,> 31 µM
same,TGI,NCI-H226 lung,> 100 µM
same,TGI,NCI-H23 lung,> 100 µM
same,TGI,NCI-H460 lung,> 100 µM
same,TGI,NCI-H522 lung,6.26 µM
same,TGI,OVCAR-3 ovarian,> 100 µM
same,TGI,OVCAR-4 ovarian,> 100 µM
same,TGI,OVCAR-5 ovarian,> 100 µM
same,TGI,OVCAR-8 ovarian,> 100 µM
same,TGI,RPMI-8226 leukemia,9.83 µM
same,TGI,RXF 393 renal,60.4 µM
same,TGI,SF-268 CNS,> 100 µM
same,TGI,SF-295 CNS,> 100 µM
same,TGI,SF-539 CNS,> 100 µM
same,TGI,SK-MEL-2 melanoma,> 100 µM
same,TGI,SK-MEL-28 melanoma,> 100 µM
same,TGI,SK-MEL-5 melanoma,> 100 µM
same,TGI,SK-OV-3 ovarian,> 100 µM
same,TGI,SN12C renal,> 100 µM
same,TGI,SNB-19 CNS,> 100 µM
same,TGI,SNB-75 CNS,> 100 µM
same,TGI,SR leukemia,> 100 µM
same,TGI,SW-620 colon,> 100 µM
same,TGI,TK-10 renal,> 100 µM
same,TGI,U251 CNS,> 100 µM
same,TGI,UACC-257 melanoma,> 100 µM
same,TGI,UACC-62 melanoma,> 100 µM
same,TGI,UO-31 renal,> 100 µM
same,TGI,XF 498 CNS,> 100 µM
